Values quoted from earlier work as cited in US20230233583A1, “USE OF PHYTOCANNABINOIDS FOR TREATING MULTIPLE MYELOMA” (priority 2020, published 2023).

System: MM cells
Details: reported in literature (ref. 3); by itself or in synergy with bortezomib; cited from earlier work

In the case of `C=C(C)[C@@H]1CCC(C)=C[C@H]1c1c(O)cc(CCCCC)cc1O` [CBD, cannabidiol], the “growth of MM cells, in words” value is given as “strongly inhibited growth”.
